The text below walks through data of ChEMBL document CHEMBL1201862, “PubChem BioAssay data set” (2004).

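Briefly, cells in 96-well plates were exposed to five compound concentrations for 48 h, and endpoints were estimated by linear interpolation. Here, GI50 denotes the concentration required for 50% inhibition of growth.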 Calls of active or inactive are those of the source. Cut-off read from the data, not from the text of the source: active = GI50 up to about 1.1 µM and inactive = higher. Some results are limits rather than exact numbers.

Among the test systems are A498; CCRF-CEM; EKVX; HCC 2998; LOX IMVI; MCF7; MDA-MB-435; MOLT-4; NCI-H522; NCI/ADR-RES; OVCAR-3; OVCAR-5; OVCAR-8; PC-3; RPMI-8226; SF-268; SN12C; SNB-19; U-251; COLO 205.
Holding throughout (assay): NCI-60 cell line screen, 48 h

With `C[N+](C)(C)C1(C(=O)[O-])CC1`, the GI50 in the test on A498, with CCRF-CEM, in the test on EKVX, in the test with HCC 2998, in the test on LOX IMVI and with MCF7 was > 100 µM (inactive) in each case. Also, the GI50 with MDA-MB-435, with MOLT-4, in the test on NCI-H522, in the test on NCI/ADR-RES, in the test with OVCAR-3 and in the test with OVCAR-5 was > 100 µM (inactive) in each case. Further, the GI50 in the test with OVCAR-8, in the test on PC-3, in the test with RPMI-8226, with SF-268, in the test with SN12C and with SNB-19 was > 100 µM (inactive) each time. Moreover, the GI50 in the test with U-251 is > 100 µM (inactive).
For `CSc1nc(SC)c2ncn(C3CC(Oc4ccc(C)cc4)C(COc4ccc(C)cc4)O3)c2n1` (stereo not given), the GI50 in the test on A498, in the test on CCRF-CEM, with COLO 205, with EKVX, in the test with HCC 2998 and in the test with LOX IMVI was > 100 µM (inactive) each time. Further, the GI50 in the test with MCF7, in the test with MDA-MB-435, with NCI-H522, in the test on NCI/ADR-RES, in the test with OVCAR-3 and in the test with OVCAR-5 was > 100 µM (inactive) each time. The GI50 is > 100 µM (inactive) in the test with OVCAR-8; > 100 µM (inactive) in the test with PC-3; 8.71 µM (inactive) in the test on RPMI-8226; > 100 µM (inactive) in the test with SF-268; > 100 µM (inactive) with SN12C; > 100 µM (inactive) with SNB-19. Further, the GI50 with U-251 is > 100 µM (inactive).
As to `CCc1c(O)nc(Nc2nc3ccccc3[nH]2)[nH]c1=O`, the GI50 with A498, in the test with CCRF-CEM, in the test with COLO 205, with HCC 2998, with LOX IMVI and in the test with MCF7 was > 100 µM (inactive) each time. For the same compound, the GI50 in the test on MDA-MB-435, with NCI-H522, in the test with NCI/ADR-RES, with OVCAR-3, in the test with OVCAR-5 and with OVCAR-8 was > 100 µM (inactive) each time. The GI50 with PC-3, with SF-268, with SN12C, with SNB-19 and with U-251 was > 100 µM (inactive) each time.
For `O=C(O)CN1C(=O)c2ccc(NC(=O)C(=O)O)cc2S1(=O)=O`, the GI50 with A498, in the test with CCRF-CEM, in the test with COLO 205, in the test on EKVX, in the test with HCC 2998 and with LOX IMVI was > 100 µM (inactive) each time. The GI50 in the test with MCF7, with MDA-MB-435, with MOLT-4, in the test on NCI-H522, in the test on NCI/ADR-RES and in the test with OVCAR-5 was > 100 µM (inactive) throughout. Also, the GI50 in the test with PC-3, with RPMI-8226, with SF-268, with SN12C, in the test on SNB-19 and in the test with U-251 was > 100 µM (inactive) in each case.
Turning to `Cn1c(=O)c2c(nc3n(Cc4ccccc4)c(=O)c(NCCCBr)cn23)n(C)c1=O`, the GI50 in the test on A498 was > 100 µM (inactive); in the test with CCRF-CEM, > 100 µM (inactive); in the test with COLO 205, > 100 µM (inactive); in the test with EKVX, 43.6 µM (inactive); in the test with HCC 2998 it was > 100 µM (inactive); in the test on LOX IMVI, 99.1 µM (inactive). Further, the GI50 is > 100 µM (inactive) with MCF7; > 100 µM (inactive) in the test on MDA-MB-435; 19.2 µM (inactive) in the test with MOLT-4; 54.3 µM (inactive) with NCI-H522; > 100 µM (inactive) with NCI/ADR-RES; > 100 µM (inactive) with OVCAR-3. The GI50 in the test on OVCAR-5 was > 100 µM (inactive); in the test with OVCAR-8, 84.9 µM (inactive); with PC-3, > 100 µM (inactive); in the test on RPMI-8226, > 100 µM (inactive); with SF-268, 41.2 µM (inactive); with SN12C it was > 100 µM (inactive). Also, the values for the GI50 in the test on SNB-19 and in the test with U-251 were 64.4 µM (inactive) and 34.1 µM (inactive), respectively.
With `O=C(C=P(c1ccccc1)(c1ccccc1)c1ccccc1)C12CC3CC(CC(C3)C1)C2`, the GI50 with A498 is 18.8 µM (inactive); in the test on CCRF-CEM, 14.4 µM (inactive); in the test on COLO 205 it was 11.9 µM (inactive); in the test with EKVX, 15.6 µM (inactive); with HCC 2998, 16.8 µM (inactive); in the test on LOX IMVI, 16.4 µM (inactive). For the same compound, the GI50 is 17 µM (inactive) with MCF7; 12.9 µM (inactive) with MDA-MB-435; 6.55 µM (inactive) in the test on NCI-H522; 16.5 µM (inactive) with NCI/ADR-RES; 14.9 µM (inactive) in the test with OVCAR-3; 17.1 µM (inactive) with OVCAR-5. Moreover, the GI50 with OVCAR-8 was 17.7 µM (inactive); with PC-3 it was 11.7 µM (inactive); in the test with RPMI-8226, 4.06 µM (inactive); in the test on SF-268 it was 20.8 µM (inactive); in the test on SN12C it was 15.9 µM (inactive); in the test on SNB-19 it was 12.6 µM (inactive). Moreover, the GI50 with U-251 was 17.7 µM (inactive).
On to `C#CC(=O)OCC#CCOC(=O)C#C`, for which the GI50 was > 100 µM (inactive) in the test on A498; 15.9 µM (inactive) in the test with CCRF-CEM; 17.9 µM (inactive) in the test on COLO 205; 14.2 µM (inactive) in the test with EKVX; 19.6 µM (inactive) in the test on HCC 2998; 1.05 µM (active) in the test with LOX IMVI. For the same compound, the GI50 is 20.9 µM (inactive) with MCF7; 28.8 µM (inactive) in the test with MDA-MB-435; 3.23 µM (inactive) with NCI-H522; 24.9 µM (inactive) with NCI/ADR-RES; 17.9 µM (inactive) in the test with OVCAR-3; 30.8 µM (inactive) in the test on OVCAR-8. The GI50 is 28.7 µM (inactive) in the test with PC-3; 15.1 µM (inactive) with RPMI-8226; > 100 µM (inactive) in the test on SF-268; 28.5 µM (inactive) in the test with SN12C; > 100 µM (inactive) in the test on SNB-19; 17.5 µM (inactive) in the test with U-251.
With `[O-][n+]1onc2c1/C(=N/O)CCC2`, the GI50 with A498, with CCRF-CEM, with COLO 205, in the test with EKVX, with HCC 2998 and with LOX IMVI was > 100 µM (inactive) throughout. Further, the GI50 with MCF7, with MDA-MB-435, with MOLT-4, in the test on NCI-H522, in the test with NCI/ADR-RES and in the test on OVCAR-3 was > 100 µM (inactive) each time. Moreover, the GI50 in the test with OVCAR-5, in the test on OVCAR-8, with PC-3, in the test on RPMI-8226, in the test with SF-268 and with SN12C was > 100 µM (inactive) throughout. The GI50 with SNB-19 is > 100 µM (inactive).
Regarding `CCOC(=O)c1nc2ccc(C(F)(F)F)cc2nc1Nc1ccc(OC)cc1`, the GI50 with A498 was 44.8 µM (inactive); with CCRF-CEM, > 100 µM (inactive); with COLO 205, > 100 µM (inactive); with EKVX it was 98.9 µM (inactive); in the test on HCC 2998 it was > 100 µM (inactive); in the test with LOX IMVI, > 100 µM (inactive). In addition, the GI50 in the test with MCF7 was > 100 µM (inactive); with MDA-MB-435 it was > 100 µM (inactive); with MOLT-4 it was > 100 µM (inactive); in the test with NCI-H522, 36.5 µM (inactive); with NCI/ADR-RES, 63.2 µM (inactive); in the test on OVCAR-3 it was 27.7 µM (inactive). For the same compound, the GI50 is > 100 µM (inactive) in the test with OVCAR-5; > 100 µM (inactive) in the test on OVCAR-8; 49.7 µM (inactive) with PC-3; > 100 µM (inactive) with RPMI-8226; 46.2 µM (inactive) in the test with SF-268; 33.6 µM (inactive) in the test with SNB-19. In addition, the GI50 in the test on U-251 is 27.5 µM (inactive).
Regarding `O=C(/N=C1\SCCN1C(=O)C(C(F)(F)F)C(F)(F)F)C(C(F)(F)F)C(F)(F)F`, the GI50 in the test with A498, in the test with CCRF-CEM, in the test with COLO 205, with EKVX, with HCC 2998 and in the test on LOX IMVI was > 100 µM (inactive) each time. For the same compound, the GI50 with MCF7, in the test with MDA-MB-435, with MOLT-4, in the test on NCI-H522, in the test with NCI/ADR-RES and in the test with OVCAR-3 was > 100 µM (inactive) throughout. In addition, the GI50 in the test with OVCAR-5, in the test with OVCAR-8, in the test with PC-3, in the test on RPMI-8226, in the test on SNB-19 and in the test on U-251 was > 100 µM (inactive) in each case.
`Cc1ccc(/C=C2\CN(C)CC3C2=NN(c2ccccc2)C3c2ccc(C)cc2)cc1` (stereo not given): the GI50 in the test with A498 was 35.3 µM (inactive); in the test with CCRF-CEM, 29 µM (inactive); in the test on COLO 205, > 100 µM (inactive); with EKVX, 76.7 µM (inactive); with HCC 2998, > 100 µM (inactive); in the test on LOX IMVI it was > 100 µM (inactive). In addition, the GI50 is > 100 µM (inactive) in the test with MCF7; > 100 µM (inactive) in the test with MDA-MB-435; 36.4 µM (inactive) with MOLT-4; > 100 µM (inactive) in the test on NCI-H522; > 100 µM (inactive) in the test with NCI/ADR-RES; > 100 µM (inactive) in the test on OVCAR-3. Moreover, the GI50 in the test on OVCAR-5 is > 10 µM (inactive); in the test with OVCAR-8, > 100 µM (inactive); in the test with PC-3 it was 38.9 µM (inactive); in the test on SF-268, > 100 µM (inactive); in the test with SN12C, > 100 µM (inactive); in the test on SNB-19, 74.6 µM (inactive). Further, in the test with U-251, the GI50 is 33.3 µM (inactive).
